According to patent publication US4774330A, “Cephalosporin intermediates” (Hoffmann-La Roche Inc., priority 1980, dated 1988):
Structures can show the parent of a compound that is named as a salt. Where two headings read alike, the source gives them in different places.

What was measured:
Proteus rettgeri = assay: MIC in vitro, Proteus rettgeri; type: cell-based; details: Providencia rettgeri, strain 2
Experimental: (§1) The following products were tested:
(§2) The following results relate to the minimum inhibitory concentration (MIC) in vitro (μg/ml): […]

Streptococcus pyogenes [1] = assay: MIC in vitro, Streptococcus pyogenes; type: cell-based
Experimental: as §1, §2

Staphylococcus aureus = assay: MIC in vitro, Staphylococcus aureus; type: cell-based
Experimental: as §1, §2

Streptococcus pneumoniae = assay: MIC in vitro, Streptococcus pneumoniae; type: cell-based
Experimental: as §1, §2

[2] = test system: Staphylococcus epidermidis; assay: MIC in vitro, Staphylococcus epidermidis; type: cell-based
Experimental: as §1, §2

Citrobacter freundii = assay: MIC in vitro, Citrobacter freundii; type: cell-based
Experimental: as §1, §2

Proteus vulgaris = assay: MIC in vitro, Proteus vulgaris; type: cell-based
Experimental: as §1, §2

Escherichia coli [3] = assay: MIC in vitro, Escherichia coli; type: cell-based
Experimental: as §1, §2

Proteus morganii = assay: MIC in vitro, Proteus morganii; type: cell-based; details: Morganella morganii, strain 2
Experimental: as §1, §2

Proteus mirabilis = assay: MIC in vitro, Proteus mirabilis; type: cell-based
Experimental: as §1, §2

Klebsiella pneumoniae = assay: MIC in vitro, Klebsiella pneumoniae; type: cell-based
Experimental: as §1, §2

Enterobacter aerogenes = assay: MIC in vitro, Enterobacter aerogenes; type: cell-based; details: Klebsiella aerogenes
Experimental: as §1, §2

Streptococcus viridans = assay: MIC in vitro, Streptococcus viridans; type: cell-based
Experimental: as §1, §2

Streptococcus faecalis = assay: MIC in vitro, Streptococcus faecalis; type: cell-based; details: Enterococcus faecalis
Experimental: as §1, §2

[4] = toxicity, 24 hours values; type: in vivo; details: in vivo, 24 hours value, read-out: Tolerated dosage
Experimental: The compounds in accordance with the invention are non-toxic, as will be evident from the following data for the 24 hours values of products A and B: […]

Serratia marcescens = assay: MIC in vitro, Serratia marcescens; type: cell-based
Experimental: as §1, §2

Enterobacter cloacae = assay: MIC in vitro, Enterobacter cloacae; type: cell-based
Experimental: as §1, §2

Proteus inconstans = assay: MIC in vitro, Proteus inconstans; type: cell-based; details: Providencia alcalifaciens
Experimental: as §1, §2

Escherichia coli [5] = assay: s.c. treatment of mice before i.p. infection, Escherichia coli; type: in vivo; details: sc, administered 24 hours before the infection
Experimental: The long retention of the products in accordance with the invention in the organism is also evident after the s.c. treatment of mice with product A or C 5 hours before a i.p. infection with the microorganism to be tested, the following Ed50 values being ascertained: | *Administered 24 hours before the infection.

Streptococcus pyogenes [6] = assay: s.c. treatment of mice before i.p. infection, Streptococcus pyogenes; type: in vivo; details: sc, 5 hours before i.p. infection
Experimental: The long retention of the products in accordance with the invention in the organism is also evident after the s.c. treatment of mice with product A or C 5 hours before a i.p. infection with the microorganism to be tested, the following Ed50 values being ascertained: […]

With `Cn1nc(OCOC(=O)C(C)(C)C)c(=O)nc1SCC1=C(C(=O)O)N2C(=O)[C@@H](NC(=O)/C(=N\O)c3csc(N)n3)[C@H]2SC1` [Product B, (6R,7R)-7-[2-(2-Amino-4-thiazolyl)-2-(Z-hydroxyimino)acetamindo]-3-[[[2,5-dihydro-2-methyl-5-oxo-6-[(pivaloyloxy)methoxy]-as-triazin-3-yl]thio]methyl]-8-oxo-5-thia-1-azabicyclo[4.2.0]oct-2-ene-2-carboxylic acid sodium salt] the MIC (Proteus rettgeri) was 0.4 µg/mL, the MIC (Streptococcus pyogenes [1]; strain 1) was 0.025 µg/mL and the MIC (Streptococcus pyogenes [1]; strain 2) was 0.025 µg/mL. For the same compound, the MIC (Staphylococcus aureus; strain 3) was 0.4 µg/mL, the MIC (Staphylococcus aureus; strain 4) was 0.8 µg/mL and the MIC (Staphylococcus aureus; strain 5) was 0.4 µg/mL. It also gave an MIC (Staphylococcus aureus; strain 6) of 0.8 µg/mL, an MIC (Streptococcus pneumoniae) of 0.1 µg/mL and an MIC [2] of 0.4 µg/mL. For the same compound, the MIC (Citrobacter freundii; strain 2) was 3.1 µg/mL, the MIC (Citrobacter freundii; strain 3) was 0.4 µg/mL and the MIC (Proteus vulgaris; strain 4) was 12.5 µg/mL. It also gave an MIC (Proteus vulgaris; strain 5) of 0.8 µg/mL, an MIC (Proteus vulgaris; strain 6) of 0.8 µg/mL and an MIC (Escherichia coli [3]; strain 5) of 0.4 µg/mL. The MIC (Escherichia coli [3]; strain 6) was 0.2 µg/mL, the MIC (Escherichia coli [3]; strain 7) was 0.05 µg/mL and the MIC (Escherichia coli [3]; strain 8) was 0.8 µg/mL. For the same compound, the MIC (Proteus morganii) was 1.6 µg/mL, the MIC (Proteus mirabilis; strain 2) was 0.4 µg/mL and the MIC (Proteus mirabilis; strain 3) was 1.6 µg/mL. For the same compound, the MIC (Proteus mirabilis; strain 4) was 0.8 µg/mL, the MIC (Klebsiella pneumoniae; strain 2) was 1.6 µg/mL and the MIC (Klebsiella pneumoniae; strain 3) was 0.4 µg/mL. The MIC (Klebsiella pneumoniae; strain 4) was 0.8 µg/mL, the MIC (Enterobacter aerogenes; strain 1) was 0.2 µg/mL and the MIC (Enterobacter aerogenes; strain 2) was 1.6 µg/mL. For the same compound, the MIC (Streptococcus viridans) was 0.4 µg/mL, the MIC (Streptococcus faecalis; strain 1) was 6.3 µg/mL and the MIC (Streptococcus faecalis; strain 2) was > 25 µg/mL. The MTD at 24 h ([4]; sc, subcutaneous) was > 4000 mg/kg, the MTD at 24 h ([4]; oral) was > 5000 mg/kg and the MIC (Serratia marcescens; strain 10) was 6.3 µg/mL. For the same compound, the MIC (Serratia marcescens; strain 11) was 12.5 µg/mL, the MIC (Serratia marcescens; strain 12) was 1.6 µg/mL and the MIC (Enterobacter cloacae; strain 3) was > 25 µg/mL. For the same compound, the MIC (Enterobacter cloacae; strain 4) was 6.3 µg/mL, the MIC (Proteus inconstans; strain 2) was 0.2 µg/mL and the MIC (Proteus inconstans; strain 3) was ≤ 0.025 µg/mL.
`Cn1nc(OCOC(=O)C(C)(C)C)c(=O)nc1SCC1=C(C(=O)OCOC(=O)C(C)(C)C)N2C(=O)[C@@H](NC(=O)/C(=N\O)c3csc(N)n3)[C@H]2SC1` [Product C, Methylene-(6R,7R)-7-[2-(2-amino-4-thiazolyl)-2-(Z-hydroxyimino)acetamido]-3-[[[2,5-dihydro-2-methyl-5-oxo-6-[(pivaloyloxy)methoxy]-as-triazin-3-yl]thio]methyl]-8-oxo-5-thia-1-azabicyclo[4.2.0]-oct-2-ene-2-carboxylate pivalate] gave an ED50 (Escherichia coli [5]) of 5.6 mg/kg and an ED50 (Streptococcus pyogenes [6]) of 0.45 mg/kg.
